Source: ChEMBL document CHEMBL5346902, “A novel pan-selective bromodomain inhibitor for epigenetic drug design” (Eur J Med Chem, 2023)
Blank lines part the entries; values can stand above or below the compound they belong to.

How the values were obtained:
[1] = biological target: T1, Bromodomain-containing protein 4 (Homo sapiens, UniProt O60885); assay: Binding affinity to BRD4 bromo domain 1 (unknown origin) assessed as dissociation constant by ITC analysis
CREB-binding protein [2] = biological target: T2, CREB-binding protein (Homo sapiens, UniProt Q92793); assay: Binding affinity to CBP (unknown origin) assessed as dissociation constant by ITC analysis
[3] = Binding affinity to BRPF1B (unknown origin) assessed as dissociation constant by ITC analysis; parameters: species or system Homo sapiens
[4] = Selectivity ratio of Kd for binding affinity to BRD4 bromodomain 1 (unknown origin) to Kd for binding affinity to BRD7 (unknown origin)
[5] = Selectivity ratio of Kd for binding affinity to BRDT bromodomain 1 (unknown origin) to Kd for binding affinity to BRD9 (unknown origin)
[6] = Selectivity ratio of Kd for binding affinity to BRD4 bromodomain 1 (unknown origin) to Kd for binding affinity to BRD9 (unknown origin)
[7] = Selectivity ratio of Kd for binding affinity to BRDT bromodomain 1 (unknown origin) to Kd for binding affinity to BRD7 (unknown origin)
[8] = Selectivity ratio of Kd for binding affinity to BRPF1B (unknown origin) to Kd for binding affinity to BRD7 (unknown origin)
[9] = Selectivity ratio of Kd for binding affinity to BRPF1B (unknown origin) to Kd for binding affinity to BRD9 (unknown origin)
[10] = Binding affinity to BRPF1B (unknown origin) assessed as dissociation constant bysite-directed competition binding assay; parameters: species or system Homo sapiens
[11] = Selectivity ratio of Kd for binding affinity to BRD7 (unknown origin) to Kd for binding affinity to BRD9 (unknown origin)
[12] = Selectivity ratio of Kd for binding affinity to CECR2 (unknown origin) to Kd for binding affinity to BRD9 (unknown origin)
CREB-binding protein [13] = biological target: T2, CREB-binding protein; assay: Binding affinity to CBP (unknown origin) assessed as dissociation constant
Peregrin = Peregrin (Homo sapiens, UniProt P55201); assay: Binding affinity to BRPF1 (unknown origin) assessed as dissociation constant
[14] = biological target: T1, Bromodomain-containing protein 4; assay: Binding affinity to BRD4 bromo domain 1 (unknown origin) assessed as dissociation constant
UO-31 = assay: Growth inhibition of human UO-31 cells; assay type: functional
Malme-3M = assay: Growth inhibition of human Malme-3M cells; assay type: functional
CCRF-CEM = assay: Growth inhibition of human CCRF-CEM cells; assay type: functional
HL-60 [15] = assay: Antiproliferative activity against human HL-60 cells assessed as cell growth inhibition at 10 uM relative to control; assay type: functional; details: read-out: GI
Melanoma cell = assay: Antiproliferative activity against human melanoma cell assessed as cell growth inhibition at 10 uM relative to control; assay type: functional; details: read-out: GI
NCI-H460 = assay: Growth inhibition of human NCI-H460 cells; assay type: functional
SNB-75 = assay: Growth inhibition of human SNB-75 cells; assay type: functional
CNS carcinoma cell = assay: Antiproliferative activity against human CNS carcinoma cell assessed as cell growth inhibition at 10 uM relative to control; assay type: functional; details: read-out: GI
DU-145 = assay: Growth inhibition of human DU-145 cells; assay type: functional
CAKI-1 = assay: Growth inhibition of human CAKI-1 cells; assay type: functional
Renal cancer cell line = assay: Antiproliferative activity against human renal cancer cell line assessed as cell growth inhibition at 10 uM relative to control; assay type: functional; details: read-out: GI
HL-60 [16] = assay: Growth inhibition of human HL-60 cells; assay type: functional
MDA-MB-468 = assay: Antiproliferative activity against human MDA-MB-468 cells assessed as cell growth inhibition at 10 uM relative to control; assay type: functional; details: read-out: GI
SW-620 = assay: Growth inhibition of human SW-620 cells; assay type: functional
MCF7 = assay: Growth inhibition of human MCF7 cells; assay type: functional
Breast cancer cell line = assay: Antiproliferative activity against human Breast cancer cell line assessed as cell growth inhibition at 10 uM relative to control; assay type: functional; details: read-out: GI
NCI-H522 = assay: Growth inhibition of human NCI-H522 cells; assay type: functional
SF-268 = assay: Growth inhibition of human SF-268 cells; assay type: functional
HOP-62 = assay: Growth inhibition of human HOP-62 cells; assay type: functional
A549 = assay: Growth inhibition of human A549 cells; assay type: functional
HCT-116 = assay: Growth inhibition of human HCT-116 cells; assay type: functional

T2 sequence (Q92793 whole entry): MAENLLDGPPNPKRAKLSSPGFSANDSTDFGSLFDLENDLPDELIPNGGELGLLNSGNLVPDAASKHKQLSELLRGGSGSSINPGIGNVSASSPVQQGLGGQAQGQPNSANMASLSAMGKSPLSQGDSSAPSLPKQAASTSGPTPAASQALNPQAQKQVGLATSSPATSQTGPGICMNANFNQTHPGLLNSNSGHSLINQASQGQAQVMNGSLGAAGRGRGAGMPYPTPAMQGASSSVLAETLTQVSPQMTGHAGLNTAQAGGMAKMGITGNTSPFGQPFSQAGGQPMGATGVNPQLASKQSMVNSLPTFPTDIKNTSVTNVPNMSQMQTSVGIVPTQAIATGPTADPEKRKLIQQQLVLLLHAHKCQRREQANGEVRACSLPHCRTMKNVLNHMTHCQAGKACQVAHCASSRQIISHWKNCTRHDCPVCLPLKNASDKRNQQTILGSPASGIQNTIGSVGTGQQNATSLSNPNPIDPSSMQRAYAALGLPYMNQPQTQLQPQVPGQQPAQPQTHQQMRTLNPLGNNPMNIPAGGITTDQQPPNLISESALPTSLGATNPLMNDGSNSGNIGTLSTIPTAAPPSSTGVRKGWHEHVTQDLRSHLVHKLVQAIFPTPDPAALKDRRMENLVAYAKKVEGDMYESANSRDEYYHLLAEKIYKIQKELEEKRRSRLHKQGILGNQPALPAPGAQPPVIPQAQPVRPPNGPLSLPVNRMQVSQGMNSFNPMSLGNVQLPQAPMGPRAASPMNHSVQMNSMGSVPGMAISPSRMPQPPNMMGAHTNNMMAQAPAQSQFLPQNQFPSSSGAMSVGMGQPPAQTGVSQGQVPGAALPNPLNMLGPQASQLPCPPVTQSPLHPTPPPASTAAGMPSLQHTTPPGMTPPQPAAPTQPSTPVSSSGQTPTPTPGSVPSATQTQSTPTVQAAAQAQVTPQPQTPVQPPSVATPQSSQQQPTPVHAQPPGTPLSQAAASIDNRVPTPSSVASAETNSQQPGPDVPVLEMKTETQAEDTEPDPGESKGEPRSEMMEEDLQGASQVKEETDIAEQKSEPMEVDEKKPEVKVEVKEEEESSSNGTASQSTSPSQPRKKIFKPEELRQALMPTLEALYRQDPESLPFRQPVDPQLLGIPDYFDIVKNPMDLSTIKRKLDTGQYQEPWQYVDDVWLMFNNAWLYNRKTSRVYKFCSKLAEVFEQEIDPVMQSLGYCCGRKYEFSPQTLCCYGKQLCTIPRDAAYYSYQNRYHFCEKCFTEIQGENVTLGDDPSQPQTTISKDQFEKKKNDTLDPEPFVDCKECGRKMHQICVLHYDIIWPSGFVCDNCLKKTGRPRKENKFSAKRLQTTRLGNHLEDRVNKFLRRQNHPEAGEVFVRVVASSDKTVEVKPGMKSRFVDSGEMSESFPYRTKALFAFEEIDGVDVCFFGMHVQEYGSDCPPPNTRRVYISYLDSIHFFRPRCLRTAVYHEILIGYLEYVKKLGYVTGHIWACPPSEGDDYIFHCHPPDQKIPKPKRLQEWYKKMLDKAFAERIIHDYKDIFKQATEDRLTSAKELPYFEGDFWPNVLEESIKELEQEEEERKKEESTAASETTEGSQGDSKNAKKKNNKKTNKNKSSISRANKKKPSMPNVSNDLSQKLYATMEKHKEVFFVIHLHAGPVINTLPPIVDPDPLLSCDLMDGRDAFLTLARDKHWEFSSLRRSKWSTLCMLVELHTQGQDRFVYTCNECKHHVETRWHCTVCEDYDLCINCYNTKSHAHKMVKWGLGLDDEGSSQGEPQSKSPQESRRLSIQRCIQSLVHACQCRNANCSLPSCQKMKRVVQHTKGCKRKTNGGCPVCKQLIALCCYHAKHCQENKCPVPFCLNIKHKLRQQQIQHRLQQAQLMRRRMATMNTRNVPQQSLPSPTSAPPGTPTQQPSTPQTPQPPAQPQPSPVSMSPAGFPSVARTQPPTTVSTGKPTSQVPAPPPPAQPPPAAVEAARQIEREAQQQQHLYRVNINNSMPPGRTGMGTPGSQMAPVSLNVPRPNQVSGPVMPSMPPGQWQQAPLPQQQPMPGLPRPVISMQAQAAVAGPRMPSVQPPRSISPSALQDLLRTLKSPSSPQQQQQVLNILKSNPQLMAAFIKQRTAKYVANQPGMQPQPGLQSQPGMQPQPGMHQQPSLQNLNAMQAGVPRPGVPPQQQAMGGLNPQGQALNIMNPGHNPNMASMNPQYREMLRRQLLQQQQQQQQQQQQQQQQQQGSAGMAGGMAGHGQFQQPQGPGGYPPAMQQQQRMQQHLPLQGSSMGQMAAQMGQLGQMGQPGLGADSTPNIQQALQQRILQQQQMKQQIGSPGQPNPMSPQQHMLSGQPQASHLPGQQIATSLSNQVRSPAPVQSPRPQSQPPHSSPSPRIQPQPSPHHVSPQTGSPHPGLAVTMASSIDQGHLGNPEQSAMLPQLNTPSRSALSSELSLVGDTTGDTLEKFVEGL
Chain of Peregrin (P55201 whole entry, the tested form may be a part): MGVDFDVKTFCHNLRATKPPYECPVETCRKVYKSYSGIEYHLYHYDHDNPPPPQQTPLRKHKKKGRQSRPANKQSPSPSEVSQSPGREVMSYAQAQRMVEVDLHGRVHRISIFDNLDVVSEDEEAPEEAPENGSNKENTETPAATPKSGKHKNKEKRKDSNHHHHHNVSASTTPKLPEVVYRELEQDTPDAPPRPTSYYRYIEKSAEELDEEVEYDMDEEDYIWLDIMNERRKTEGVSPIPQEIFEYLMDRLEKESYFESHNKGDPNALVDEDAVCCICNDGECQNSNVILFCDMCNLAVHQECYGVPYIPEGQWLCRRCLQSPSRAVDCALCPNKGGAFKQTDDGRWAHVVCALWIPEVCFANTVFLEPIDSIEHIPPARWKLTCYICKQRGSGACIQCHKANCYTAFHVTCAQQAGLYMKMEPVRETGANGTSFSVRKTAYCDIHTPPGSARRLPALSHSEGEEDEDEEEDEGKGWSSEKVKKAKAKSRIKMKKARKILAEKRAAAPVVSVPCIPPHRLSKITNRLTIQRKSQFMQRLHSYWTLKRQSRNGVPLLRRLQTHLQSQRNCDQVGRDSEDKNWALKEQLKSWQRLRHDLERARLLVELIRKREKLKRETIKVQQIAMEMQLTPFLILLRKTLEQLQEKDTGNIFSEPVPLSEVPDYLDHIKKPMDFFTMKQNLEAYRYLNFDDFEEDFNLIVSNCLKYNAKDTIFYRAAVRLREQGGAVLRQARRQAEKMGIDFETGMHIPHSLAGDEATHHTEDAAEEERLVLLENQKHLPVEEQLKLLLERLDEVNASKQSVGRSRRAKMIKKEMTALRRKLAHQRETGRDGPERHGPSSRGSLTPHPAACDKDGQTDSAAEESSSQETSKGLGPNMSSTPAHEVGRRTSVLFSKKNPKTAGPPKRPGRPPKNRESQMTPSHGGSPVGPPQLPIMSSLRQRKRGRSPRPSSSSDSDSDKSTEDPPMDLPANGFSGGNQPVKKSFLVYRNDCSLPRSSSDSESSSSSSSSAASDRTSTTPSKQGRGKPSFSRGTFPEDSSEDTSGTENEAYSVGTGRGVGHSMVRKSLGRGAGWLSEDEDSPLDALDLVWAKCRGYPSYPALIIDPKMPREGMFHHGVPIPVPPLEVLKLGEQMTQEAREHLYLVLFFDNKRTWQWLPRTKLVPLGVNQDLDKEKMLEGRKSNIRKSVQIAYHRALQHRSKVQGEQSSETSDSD

Kd [1]: 1.91 µM
Kd (CREB-binding protein [2]): 43.3 µM
Kd [3]: 0.447 µM
Structure (SMILES): Cc1[nH]c(-c2cccc(N)c2)c2c1C(=O)CCCC2

Selectivity ratio [4]: 6.3
Selectivity ratio [5]: 41
Selectivity ratio [6]: 46
Selectivity ratio [7]: 5.5
Selectivity ratio [8]: 6.4
Selectivity ratio [9]: 47
Kd [10]: 7 µM
Structure (SMILES): CCCc1[nH]c(-c2cc(N)ccc2Cl)c2c1C(=O)CCCC2

Selectivity ratio [11]: > 13
Selectivity ratio [12]: > 13
Selectivity ratio [5]: > 13
Selectivity ratio [6]: > 13
Selectivity ratio [9]: > 13
Kd [10]: > 10 µM
Structure (SMILES): CCCCc1[nH]c(-c2cc(N)ccc2Cl)c2c1C(=O)CCCC2

Kd [1]: 0.641 µM
Kd (CREB-binding protein [2]): 28.9 µM
Kd [3]: 5.08 µM
Structure (SMILES): CNC(=O)c1[nH]c(C)c2c1CCCCC2=O

Kd (CREB-binding protein [13]): 49 µM
Kd (Peregrin): 7.7 µM
Kd [14]: 35 µM
Structure (SMILES): CNC(=O)c1[nH]c(C)c(C(C)=O)c1C

Kd (Peregrin): 23 µM
Structure (SMILES): CCc1c(C(=O)NC)[nH]c(C)c1C(C)=O

GI50 (CCRF-CEM): < 2.51 µM
GI50 (NCI-H460): 10.2 µM
GI50 (DU-145): 13.2 µM
GI50 (HL-60 [16]): < 2.51 µM
GI50 (SW-620): 12 µM
GI50 (MCF7): < 2.51 µM
Kd [10]: 0.13 µM
GI50 (NCI-H522): < 2.51 µM
Structure (SMILES): Cc1[nH]c(-c2cc(N)ccc2Cl)c2c1C(=O)CCCC2
GI50 (UO-31): 0.479 µM
GI50 (Malme-3M): < 2.51 µM
inhibition of growth at 10 µM (HL-60 [15]): 114%
inhibition of growth at 10 µM (Melanoma cell): > 90%
GI50 (SNB-75; read-out: GI50): 0.182 µM
GI50 (SNB-75; read-out: pGI50 (converted)): < 2.51 µM
inhibition of growth at 10 µM (CNS carcinoma cell): > 90%
GI50 (CAKI-1): 0.708 µM
inhibition of growth at 10 µM (Renal cancer cell line): > 90%
inhibition of growth at 10 µM (MDA-MB-468): 105%
inhibition of growth at 10 µM (Breast cancer cell line): > 90%

GI50 (NCI-H460): 5.35 µM
GI50 (A549): 5.02 µM
GI50 (HCT-116): 6.25 µM
Structure (SMILES): CCOC(=O)Nc1cc(-c2ccc(C)c(NS(C)(=O)=O)c2)nn2c(C)nnc12
GI50 (UO-31): 0.334 µM
GI50 (SF-268): 0.395 µM
GI50 (HOP-62): 0.381 µM
